Experimental data taken from patent US8871753B2, “Macrocyclic compounds and their use as kinase inhibitors” (Incyte Corporation, priority 2008, dated 2014).
pIC50: −log10 of the molar value.

Legend:
Format in all cases: biochemical
[1] = molecular target: T1, human JAK3 (a.a. 781-1124) (Homo sapiens, UniProt P52333); assay: In vitro JAK kinase assay (HTRF, phosphorylation of a biotinylated peptide), JAK3; conditions: Table D1
T1 construct: JAK3 (a.a. 781-1124); His tag (N); made in house; host or cells: insect cells (baculovirus)
T1 sequence (P52333 781-1124): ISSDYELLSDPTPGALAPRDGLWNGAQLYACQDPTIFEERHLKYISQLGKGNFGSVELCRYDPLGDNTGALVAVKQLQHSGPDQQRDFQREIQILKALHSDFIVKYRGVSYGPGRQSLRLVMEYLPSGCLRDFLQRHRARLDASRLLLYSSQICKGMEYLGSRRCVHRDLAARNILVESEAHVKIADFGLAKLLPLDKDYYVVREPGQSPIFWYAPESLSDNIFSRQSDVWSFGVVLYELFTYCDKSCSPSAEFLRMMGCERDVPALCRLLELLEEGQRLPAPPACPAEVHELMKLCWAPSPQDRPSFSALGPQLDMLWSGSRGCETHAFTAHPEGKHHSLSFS
In short: (§1)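 Phosphorylation of a biotinylated peptide by the JAK kinase domain, detected by HTRF with Eu-Py20 and SA-APC. ATP was 90 μM for JAK1, 30 μM for JAK2 and 3 μM for JAK3. Reactions ran 1 h at room temperature and were stopped with EDTA, followed by 40 min antibody binding.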

[2] = molecular target: T2, human JAK2 (a.a. 828-1132) (Homo sapiens, UniProt O60674); assay: In vitro JAK kinase assay (HTRF, phosphorylation of a biotinylated peptide), JAK2; conditions: Table D1
T2 construct: JAK2 (a.a. 828-1132); His tag (N); made in house; host or cells: insect cells (baculovirus)
T2 sequence (O60674 828-1132): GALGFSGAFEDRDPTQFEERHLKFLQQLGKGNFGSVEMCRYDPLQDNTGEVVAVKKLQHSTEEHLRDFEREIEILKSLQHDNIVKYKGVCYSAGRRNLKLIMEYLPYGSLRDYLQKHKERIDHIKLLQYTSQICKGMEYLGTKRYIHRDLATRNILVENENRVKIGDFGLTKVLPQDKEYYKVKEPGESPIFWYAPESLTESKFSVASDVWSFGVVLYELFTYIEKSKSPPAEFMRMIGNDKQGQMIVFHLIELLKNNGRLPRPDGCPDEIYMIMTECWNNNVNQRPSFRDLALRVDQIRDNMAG
In short: as §1

[3] = molecular target: T3, human JAK1 (a.a. 837-1142) (Homo sapiens, UniProt P23458); assay: In vitro JAK kinase assay (HTRF, phosphorylation of a biotinylated peptide), JAK1; conditions: Table D1; read-out: JAK1 IC50
T3 construct: human JAK1 (a.a. 837-1142); His tag (N); made in house; host or cells: insect cells (baculovirus)
T3 sequence (P23458 849-1154): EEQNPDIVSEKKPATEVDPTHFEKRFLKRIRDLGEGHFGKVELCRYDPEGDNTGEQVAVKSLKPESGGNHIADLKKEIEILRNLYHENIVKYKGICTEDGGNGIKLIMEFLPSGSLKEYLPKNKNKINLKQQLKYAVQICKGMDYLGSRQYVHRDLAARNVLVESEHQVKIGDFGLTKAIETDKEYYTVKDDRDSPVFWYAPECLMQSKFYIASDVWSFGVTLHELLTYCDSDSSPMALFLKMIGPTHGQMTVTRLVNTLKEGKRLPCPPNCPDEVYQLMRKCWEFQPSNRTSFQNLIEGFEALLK
In short: as §1

TYK2 = TYK2 (Homo sapiens, UniProt P29597); assay: TYK2 kinase inhibition (Table A1); conditions: Table D1
Sequence of TYK2 (P29597 whole entry): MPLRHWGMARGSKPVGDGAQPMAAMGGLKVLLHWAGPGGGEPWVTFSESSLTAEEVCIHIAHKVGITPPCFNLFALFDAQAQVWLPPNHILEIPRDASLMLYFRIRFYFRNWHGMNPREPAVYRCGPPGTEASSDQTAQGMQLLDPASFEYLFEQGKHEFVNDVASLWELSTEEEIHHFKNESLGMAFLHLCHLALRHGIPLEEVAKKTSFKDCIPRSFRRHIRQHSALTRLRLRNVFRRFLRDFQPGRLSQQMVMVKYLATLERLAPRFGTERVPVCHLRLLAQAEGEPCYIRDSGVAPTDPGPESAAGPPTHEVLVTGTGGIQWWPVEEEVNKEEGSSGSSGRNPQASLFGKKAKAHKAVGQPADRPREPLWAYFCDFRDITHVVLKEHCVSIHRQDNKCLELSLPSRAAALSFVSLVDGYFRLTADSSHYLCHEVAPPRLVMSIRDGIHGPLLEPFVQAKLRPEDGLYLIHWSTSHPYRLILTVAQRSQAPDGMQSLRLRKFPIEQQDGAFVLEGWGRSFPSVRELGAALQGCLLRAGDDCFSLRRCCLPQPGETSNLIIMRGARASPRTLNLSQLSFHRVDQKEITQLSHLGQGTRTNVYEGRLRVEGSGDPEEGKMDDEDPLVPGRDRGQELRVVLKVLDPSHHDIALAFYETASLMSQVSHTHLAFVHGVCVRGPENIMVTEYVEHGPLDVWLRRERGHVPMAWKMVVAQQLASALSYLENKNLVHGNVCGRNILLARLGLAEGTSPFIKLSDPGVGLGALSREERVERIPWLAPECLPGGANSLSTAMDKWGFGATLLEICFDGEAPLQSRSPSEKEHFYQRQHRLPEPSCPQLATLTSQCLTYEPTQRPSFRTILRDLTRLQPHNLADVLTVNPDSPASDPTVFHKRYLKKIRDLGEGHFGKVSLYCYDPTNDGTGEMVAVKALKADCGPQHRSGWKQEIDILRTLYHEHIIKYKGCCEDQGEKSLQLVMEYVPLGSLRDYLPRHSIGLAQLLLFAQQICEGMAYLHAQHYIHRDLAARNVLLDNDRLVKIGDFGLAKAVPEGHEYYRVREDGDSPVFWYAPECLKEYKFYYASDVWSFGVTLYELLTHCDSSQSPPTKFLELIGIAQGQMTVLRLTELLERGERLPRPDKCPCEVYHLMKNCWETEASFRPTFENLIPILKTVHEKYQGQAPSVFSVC

Row | SMILES | pIC50 [1] | pIC50 [2] | pIC50 [3] | pIC50 (TYK2)
1 | N#Cc1ccc(C(=O)N2CCN(c3ccc4cc3CCc3cccc(c3)Nc3ncc(Cl)c(n3)N4)CC2)cc1 [Example D95, 4-({4-[6-Chloro-2,4,8,22-tetraazatetracyclo[14.3.1.1(3,7).1(9,13)]docosa-1(20),3(22),4,6,9(21),10,12,16,18-nonaen-12-yl]piperazin-1-yl}carbonyl)benzonitrile bis(trifluoroacetate)] | 7.06 | 7.82 | 7.60 | 6.97
2 | O=C(c1ccc(C(F)(F)F)cc1)N1CCN(c2ccc3cc2CCc2cccc(c2)Nc2ncc(Cl)c(n2)N3)CC1 [Example D96, 6-Chloro-12-{4-[4-(trifluoromethyl)benzoyl]piperazin-1-yl}-2,4,8,22-tetraazatetracyclo[14.3.1.1(3,7).1(9,13)]docosa-1(20),3(22),4,6,9(21),10,12,16,18-nonaene bis(trifluoroacetate)] | 6.83 | 7.31 | 6.95 | 6.71
3 | O=C(C[C@@H]1CCN(C(=O)Nc2ccccc2F)C1)Nc1ccc2cc1CCc1cncc(c1)Nc1ncc(Cl)c(n1)N2 [Example D135, (3S)-3-(2-{[6-Chloro-2,4,8,18,22-pentaazatetracyclo[14.3.1.1(3,7).1(9,13)]docosa-1(20),3(22),4,6,9(21),10,12,16,18-nonaen-12-yl]amino}-2-oxoethyl)-N-(2-fluorophenyl)pyrrolidine-1-carboxamide bis(trifluoroacetate)] | < 6.00 | 6.50 | 7.22 | < 6.00
4 | O=C(C[C@H]1CCN(c2nc3ccccc3s2)C1)Nc1ccc2cc1CCc1cncc(c1)Nc1ncc(Cl)c(n1)N2 [Example D136, 2-[(3R)-1-(1,3-Benzothiazol-2-yl)pyrrolidin-3-yl]-N-[6-chloro-2,4,8,18,22-pentaazatetracyclo[14.3.1.1(3,7).1(9,13)]docosa-1(20),3(22),4,6,9(21),10,12,16,18-nonaen-12-yl]acetamide tris(trifluoroacetate)] | < 6.00 | 7.28 | 8.18 | 6.97
5 | O=C(C[C@@H]1CCN(c2nc3ccccc3s2)C1)Nc1ccc2cc1CCc1cncc(c1)Nc1ncc(Cl)c(n1)N2 [Example D137, 2-[(3S)-1-(1,3-Benzothiazol-2-yl)pyrrolidin-3-yl]-N-[6-chloro-2,4,8,18,22-pentaazatetracyclo[14.3.1.1(3,7).1(9,13)]docosa-1(20),3(22),4,6,9(21),10,12,16,18-nonaen-12-yl]acetamide tris(trifluoroacetate)] | < 6.00 | 7.82 | 8.80 | 7.18
6 | O=C(CC1CN(c2nc3ccccc3s2)C1)Nc1ccc2cc1CCc1cncc(c1)Nc1ncc(Cl)c(n1)N2 [Example D138, 2-[1-(1,3-Benzothiazol-2-yl)azetidin-3-yl]-N-[6-chloro-2,4,8,18,22-pentaazatetracyclo[14.3.1.1(3,7).1(9,13)]docosa-1(20),3(22),4,6,9(21),10,12,16,18-nonaen-12-yl]acetamide tris(trifluoroacetate)] | < 6.00 | 7.02 | 7.92 | 6.30
7 | O=C(C[C@H]1CCN(c2nc3cccnc3o2)C1)Nc1ccc2cc1CCc1cncc(c1)Nc1ncc(Cl)c(n1)N2 [Example D139, N-[6-Chloro-2,4,8,18,22-pentaazatetracyclo[14.3.1.1(3,7).1(9,13)]docosa-1(20),3(22),4,6,9(21),10,12,16,18-nonaen-12-yl]-2-[(3R)-1-[1,3]oxazolo[5,4-b]pyridin-2-ylpyrrolidin-3-yl]acetamide tris(trifluoroacetate)] | < 6.00 | 6.80 | 7.92 | 6.55
8 | O=C(C[C@@H]1CCN(c2nc3cccnc3o2)C1)Nc1ccc2cc1CCc1cncc(c1)Nc1ncc(Cl)c(n1)N2 [Example D140, N-[6-Chloro-2,4,8,18,22-pentaazatetracyclo[14.3.1.1(3,7).1(9,13)]docosa-1(20),3(22),4,6,9(21),10,12,16,18-nonaen-12-yl]-2-[(3S)-1-[1,3]oxazolo[5,4-b]pyridin-2-ylpyrrolidin-3-yl]acetamide tris(trifluoroacetate)] | < 6.00 | 7.08 | 8.07 | 6.65
9 | O=C(CC1CN(c2nc3cccnc3o2)C1)Nc1ccc2cc1CCc1cncc(c1)Nc1ncc(Cl)c(n1)N2 [Example D141, N-[6-Chloro-2,4,8,18,22-pentaazatetracyclo[14.3.1.1(3,7).1(9,13)]docosa-1(20),3(22),4,6,9(21),10,12,16,18-nonaen-12-yl]-2-(1-[1,3]oxazolo[5,4-b]pyridin-2-ylazetidin-3-yl)acetamide tris(trifluoroacetate)] | < 6.00 | 6.97 | 8.05 | 6.58
10 | Cn1cc(C(=O)N2CC(CC(=O)Nc3ccc4cc3CCc3cncc(c3)Nc3ncc(Cl)c(n3)N4)C2)cn1 [Example D142, N-[6-Chloro-2,4,8,18,22-pentaazatetracyclo[14.3.1.1(3,7).1(9,13)]docosa-1(20),3(22),4,6,9(21),10,12,16,18-nonaen-12-yl]-2-{1-[(1-methyl-1H-pyrazol-4-yl)carbonyl]azetidin-3-yl}acetamide bis(trifluoroacetate)] | < 6.00 | 6.84 | 7.43 | 6.71
11 | Cc1cc(C(=O)N2CC(CC(=O)Nc3ccc4cc3CCc3cncc(c3)Nc3ncc(Cl)c(n3)N4)C2)no1 [Example D143, N-[6-Chloro-2,4,8,18,22-pentaazatetracyclo[14.3.1.1(3,7).1(9,13)]docosa-1(20),3(22),4,6,9(21),10,12,16,18-nonaen-12-yl]-2-{1-[(5-methylisoxazol-3-yl)carbonyl]azetidin-3-yl}acetamide bis(trifluoroacetate)] | < 6.00 | 6.88 | 7.59 | 6.52
12 | O=C(CC1CN(C(=O)c2ccno2)C1)Nc1ccc2cc1CCc1cncc(c1)Nc1ncc(Cl)c(n1)N2 [Example D144, N-[6-Chloro-2,4,8,18,22-pentaazatetracyclo[14.3.1.1(3,7).1(9,13)]docosa-1(20),3(22),4,6,9(21),10,12,16,18-nonaen-12-yl]-2-[1-(isoxazol-5-ylcarbonyl)azetidin-3-yl]acetamide bis(trifluoroacetate)] | < 6.00 | 6.76 | 7.49 | 6.59
13 | O=C(CC1CN(C(=O)c2nccs2)C1)Nc1ccc2cc1CCc1cncc(c1)Nc1ncc(Cl)c(n1)N2 [Example D145, N-[6-Chloro-2,4,8,18,22-pentaazatetracyclo[14.3.1.1(3,7).1(9,13)]docosa-1(20),3(22),4,6,9(21),10,12,16,18-nonaen-12-yl]-2-[1-(1,3-thiazol-2-ylcarbonyl)azetidin-3-yl]acetamide bis(trifluoroacetate)] | < 6.00 | 6.91 | 7.51 | 6.11
14 | CS(=O)(=O)N1CC(CC(=O)Nc2ccc3cc2CCc2cncc(c2)Nc2ncc(Cl)c(n2)N3)C1 [Example D146, N-[6-Chloro-2,4,8,18,22-pentaazatetracyclo[14.3.1.1(3,7).1(9,13)]docosa-1(20),3(22),4,6,9(21),10,12,16,18-nonaen-12-yl]-2-[1-(methylsulfonyl)azetidin-3-yl]acetamide bis(trifluoroacetate)] | < 6.00 | 6.83 | 7.62 | 6.57
15 | O=C(CC1CN(C(=O)c2nc[nH]n2)C1)Nc1ccc2cc1CCc1cncc(c1)Nc1ncc(Cl)c(n1)N2 [Example D147, N-[6-Chloro-2,4,8,18,22-pentaazatetracyclo[14.3.1.1(3,7).1(9,13)]docosa-1(20),3(22),4,6,9(21),10,12,16,18-nonaen-12-yl]-2-[1-(1H-1,2,4-triazol-3-ylcarbonyl)azetidin-3-yl]acetamide bis(trifluoroacetate)] | < 6.00 | 7.07 | 7.59 | 6.40
16 | O=C(CC1CN(C(=O)c2c[nH]nn2)C1)Nc1ccc2cc1CCc1cncc(c1)Nc1ncc(Cl)c(n1)N2 [Example D148, N-[6-Chloro-2,4,8,18,22-pentaazatetracyclo[14.3.1.1(3,7).1(9,13)]docosa-1(20),3(22),4,6,9(21),10,12,16,18-nonaen-12-yl]-2-[1-(1H-1,2,3-triazol-4-ylcarbonyl)azetidin-3-yl]acetamide bis(trifluoroacetate)] | < 6.00 | 7.47 | 7.82 | 6.38
17 | O=C(CC1CN(C(=O)c2cn[nH]c2)C1)Nc1ccc2cc1CCc1cncc(c1)Nc1ncc(Cl)c(n1)N2 [Example D149, N-[6-Chloro-2,4,8,18,22-pentaazatetracyclo[14.3.1.1(3,7).1(9,13)]docosa-1(20),3(22),4,6,9(21),10,12,16,18-nonaen-12-yl]-2-[1-(1H-pyrazol-4-ylcarbonyl)azetidin-3-yl]acetamide bis(trifluoroacetate)] | < 6.00 | 7.03 | 7.74 | 6.77
18 | O=C(CC1CN(C(=O)c2ccn[nH]2)C1)Nc1ccc2cc1CCc1cncc(c1)Nc1ncc(Cl)c(n1)N2 [Example D150, N-[6-Chloro-2,4,8,18,22-pentaazatetracyclo[14.3.1.1(3,7).1(9,13)]docosa-1(20),3(22),4,6,9(21),10,12,16,18-nonaen-12-yl]-2-[1-(1H-pyrazol-5-ylcarbonyl)azetidin-3-yl]acetamide bis(trifluoroacetate)] | < 6.00 | 6.87 | 7.48 | 6.36
